Measurements: US20220347309A1, “PYRROLOBENZODIAZEPINE RESISTANCE” (ADC THERAPEUTICS SA, priority 2018, published 2022)

Legend:
Assay type in all cases: cell-based, human
NCI-N87 wt cells = assay: Single dose 2-hour exposure cytotoxicity (MTS); conditions: single dose for 2 hours, then 144 hours, vs untreated control
Karpas ADCr cells = assay: DNA interstrand cross-linking, comet assay; conditions: 130 μM ADCT-301 or 280 μM SG3199 (figure legends: pM) for 2 hours, then 24 hours
Procedure: (§1) The formation of inter-strand cross-links (ICLs) by either ADCT-301 or SG3199 was measured using a modification of the single cell gel electrophoresis (comet) assay (Spanswick V J, Hartley J M, Hartley J A. Measurement of DNA interstrand crosslinking in individual cells using the Single Cell Gel Electrophoresis (Comet) assay. Methods Mol Biol. 613, 267-82 (2010)). Cells were treated with […] ADCT-301 or […] SG3199 for 2 hours, then washed and incubated for 24 hours under normal cell culture conditions. All cells were irradiated with 18 Gy (5 Gy/min for 3.6 min). Comet slides were reviewed under a 20× objective on an epifluorescence microscope equipped with: Hg arc lamp; 580 nm dichroic mirror; and 535 nm excitation and 645 nm emission filters suitable for visualising of propidium iodide staining with a minimum of 50 Comet images acquired per treatment condition. The Olive Tail Moment (OTM) was determined as the product of the tail length and the fraction of total DNA in the tail as recorded by Komet 6 software (Andor Technology, Belfast, UK) and the percentage reduction in OTM calculated according to the formula:
(§2) % decrease in tail moment=[1−(TMdi−TMcu)/(TMci−TMcu)]*100 • [TMdi=Tail Moment drug irradiated; TMcu=TM control un-irradiated; TMci=TM control irradiated]
(§3) The results are shown in FIG. 18 for the ADCR line and FIG. 19 for the PBDR line.

Karpas PBDr cells = assay: DNA interstrand cross-linking, comet assay; conditions: 130 μM ADCT-301 or 280 μM SG3199 (figure legends: pM) for 2 hours, then 24 hours
Procedure: as §1, §2, §3

Karpas-299 wt cells = assay: DNA interstrand cross-linking, single cell gel electrophoresis (comet) assay; conditions: 130 μM ADCT-301 or 280 μM SG3199 (figure legends: pM) for 2 hours, then 24 hours
Procedure: as §1, §2, §3

## COc1cc2c(cc1OCCCCCOc1cc3c(cc1OC)C(=O)N1C=C(C)C[C@H]1C=N3)N=C[C@@H]1CC(C)=CN1C2=O [SG3199]
NCI-N87 wt cells
  2 hr mean % growth: 29.0%
Karpas ADCr cells
  % red. OTM: 7.2%
Karpas PBDr cells
  % red. OTM: 25.7%
Karpas-299 wt cells
  % red. OTM (mean % reduction in Olive Tail Moment): 55.5%
